This passage reports FPO and AUC(0-inf) results from patent US7528115B2, “Carbonate and carbamate prodrugs of thiazolo[4,5-d]pyrimidines” (Anadys Pharmaceuticals, Inc., priority 2006, dated 2009).

This series is described as follows: Animal PK: oral availability of 53b in cynomolgus monkeys after dosing of Formula I prodrugs. It is filed as in vivo. The following applies: 53b dosed IV. As for the experimental part: The ability of prodrugs of the present invention to deliver 53a or 53b to the systemic circulation after oral dosing was assessed by methods well known in the art. For Table 1, each test compound was formulated into a solution for oral dosing by dissolving the compound in either an aqueous buffer such as PBS at pH 3 or pH 7 (in a solution of 100% propylene glycol), or in a solution containing a solubilizer such as Cremophor EL, Tween80, or PEG400. The solution of the compound was dosed by oral gavage to cynomolgus monkeys, generally using a group of four animals for each experiment. Plasma samples were collected from the animals at several time points (usually, from 6 to 12 time points were used) within 24 hours. The plasma samples were frozen quickly after collection, and thawed immediately before sample preparation for bioanalysis. […]
Calibration standards were prepared by serial dilution of an initial concentrated standard of the analyte with either animal plasma or cell culture media. […] The acceptance of the calibration curves was based on the accuracy of the back-calculated standard concentrations. A standard was accepted if the accuracy was within 15% for all the standards, except for the lower limit of quantitation for which 20% was applied. The fitted calibration curve was used to calculate the quantity of analyte in samples. […]

Structures are written as SMILES.

As for `Nc1nc2c(sc(=O)n2C2O[C@H](CO)[C@H](O)[C@H]2O)c(=O)[nH]1` (some centres unmarked) [Compound 53b], the FPO (10 mg/kg (reference for the ratio)) is on record as 1. Besides, the AUC(0-inf) (cynomolgus monkey, plasma, 10 mg/kg, cynomolgus monkeys, mean of all individual AUC(0-inf) values) was found to be 15200 ng·h/mL.
